Key:
[1] = test system: small flower umbrella sedge; assay: Test B flooded paddy test; format: in vivo, Cyperus difformis; conditions: 1000 g ai/ha, scale 0 to 100 (0 no effect, 100 complete control)
In short: (§1)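 After treating 2-leaf paddy plants or 2–18 cm postemergence plants (1 to 4 leaves) with formulated chemical, researchers kept them in a greenhouse for 13–15 days. Effects were judged visually versus controls: 0 indicates none, 100 total control.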

pigweed = assay: Test B pre-/postemergence herbicide test; format: in vivo, Amaranthus retroflexus
In short: (§2)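 Response was scored visually 13 to 15 days after treatment against untreated greenhouse controls, 0 meaning no effect and 100 complete control. Formulations (solvent mixture plus surfactant) went onto soil after planting, onto foliage of 1- to 4-leaf plants, and onto 2-leaf plants in a flooded paddy set including rice and barnyardgrass.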

Surinam grass = assay: Test B pre-/postemergence herbicide test; format: in vivo, Urochloa decumbens
In short: as §2

wild oat = assay: Test B postemergence herbicide test; format: in vivo, Avena fatua
In short: as §1

blackgrass = assay: Test B postemergence herbicide test; format: in vivo, Alopecurus myosuroides
In short: as §1

corn = assay: Test B pre-/postemergence herbicide test; format: in vivo, Zea mays
In short: as §2

morningglory = assay: Test B pre-/postemergence herbicide test; format: in vivo, Ipomoea coccinea
In short: (§3)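 Flooded paddy rice and barnyardgrass were treated at the 2-leaf stage; upland plantings received compound either on sown seed or on 1- to 4-leaf seedlings. All were kept 13–15 days in a greenhouse and scored visually, 0–100, relative to untreated plants.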

wheat = assay: Test B postemergence herbicide test; format: in vivo, Triticum aestivum; design: key to Wheat plant response rating: 0 = no effect, 100 = complete control
In short: as §1

barnyardgrass = assay: Test B pre-/postemergence herbicide test; format: in vivo, Echinochloa crus-galli
In short: as §3

rice = assay: Test B flooded paddy test; format: in vivo, Oryza sativa; conditions: 1000 g ai/ha, scale 0 to 100 (0 no effect, 100 complete control)
In short: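 Postemergence plants were sprayed with formulated test chemicals at 2 to 18 cm height (1- to 4-leaf stage); paddy species were grown to the 2-leaf stage. After 13 to 15 days in a greenhouse, injury was rated visually against untreated controls on a 0–100 scale (0 = no effect, 100 = complete control).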

velvetleaf = assay: Test B pre-/postemergence herbicide test; format: in vivo, Abutilon theophrasti
In short: as §2

ducksalad = assay: Test B flooded paddy test; format: in vivo, Heteranthera limosa; conditions: 1000 g ai/ha, scale 0 to 100 (0 no effect, 100 complete control)
In short: as §1

cocklebur = assay: Test B pre-/postemergence herbicide test; format: in vivo, Xanthium strumarium
In short: as §3

large crabgrass = assay: Test B pre-/postemergence herbicide test; format: in vivo, Digitaria sanguinalis
In short: as §2

giant foxtail = assay: Test B pre-/postemergence herbicide test; format: in vivo, Setaria faberi
In short: as §2

[2] = 500 g ai/ha, visual rating 0-100, 0 no effect, 100 complete control, preemergence
[3] = Postemergence, 500 g ai/ha, visual rating after 13 to 15 days, scale 0 (no effect) to 100 (complete control)
[4] = postemergence, 125 g ai/ha, visual rating, scale 0 (no effect) to 100 (complete control)
[5] = preemergence, 125 g ai/ha, 0 to 100 scale, 0 is no effect, 100 is complete control
[6] = 125 g ai/ha, 0 is no effect, 100 is complete control, preemergence
[7] = Postemergence, 500 g ai/ha, scale 0 (no effect) to 100 (complete control)
[8] = postemergence, 125 g ai/ha, scale 0 to 100
[9] = 500 g ai/ha, scale 0 to 100, 0 no effect, 100 complete control, preemergence
[10] = Postemergence, 125 g ai/ha, scale 0 (no effect) to 100 (complete control)
[11] = postemergence, 500 g ai/ha, visual rating, scale 0 (no effect) to 100 (complete control)

Structure (SMILES): CCOC(=O)c1cc(NC(=O)c2cc(C(C)(C)C)nn2CC)ccc1OCC [Compound 95]
- Sedge, Umbrella plant response rating ([1]; visual rating, 13 to 15 days): 80
- Plant response rating, Pigweed (pigweed; [2]): 100
- Plant response rating, Pigweed (pigweed; [3]): 100
- Pigweed plant response rating (pigweed; [4]): 90
- Plant response rating, Pigweed (pigweed; [5]): 100
- Plant response rating, Surinam Grass (Surinam grass; [2]): 70
- Plant response rating, Surinam Grass (Surinam grass; [3]): 20
- Surinam Grass plant response rating (Surinam grass; [4]): 20
- Plant response rating, Surinam Grass (Surinam grass; [5]): 20
- Plant response rating, Oat, Wild (wild oat; [3]): 20
- Oat, Wild plant response rating (wild oat; [4]): 10
- Plant response rating, Blackgrass (blackgrass; [3]): 0
- Blackgrass plant response rating (blackgrass; [4]): 0
- Plant response rating, Corn (corn; [2]): 60
- Plant response rating, Corn (corn; [3]): 10
- Corn plant response rating (corn; [4]): 10
- Plant response rating, Corn (corn; [5]): 60
- Plant response rating, Morningglory (morningglory; [3]): 60
- Morningglory plant response rating (morningglory; [4]): 0
- Plant response rating, Morningglory (morningglory; [5]): 10
- Plant response rating, Wheat (wheat; [3]): 10
- Wheat plant response rating (wheat; [4]): 10
- Plant response rating, Barnyardgrass (barnyardgrass; [2]): 80
- Plant response rating, Barnyardgrass (barnyardgrass; [3]): 20
- Barnyardgrass plant response rating (barnyardgrass; [4]): 0
- Plant response rating, Barnyardgrass (barnyardgrass; [5]): 50
- Rice plant response rating (rice; visual rating, 13 to 15 days): 60
- Plant response rating, Velvetleaf (velvetleaf; [2]): 60
- Plant response rating, Velvetleaf (velvetleaf; [3]): 60
- Velvetleaf plant response rating (velvetleaf; [4]): 50
- Plant response rating, Velvetleaf (velvetleaf; [5]): 0
- Ducksalad plant response rating (ducksalad; visual rating, 13 to 15 days): 80
- Plant response rating, Cocklebur (cocklebur; [2]): 0
- Plant response rating, Cocklebur (cocklebur; [3]): 70
- Cocklebur plant response rating (cocklebur; [4]): 60
- Plant response rating, Cocklebur (cocklebur; [5]): 0
- Plant response rating, Crabgrass, Large (large crabgrass; [2]): 90
- Plant response rating, Crabgrass, Large (large crabgrass; [3]): 50
- Crabgrass, Large plant response rating (large crabgrass; [4]): 0
- Plant response rating, Crabgrass, Large (large crabgrass; [5]): 60
- Plant response rating, Foxtail, Giant (giant foxtail; [2]): 100
- Plant response rating, Foxtail, Giant (giant foxtail; [3]): 30
- Foxtail, Giant plant response rating (giant foxtail; [4]): 10
- Plant response rating, Foxtail, Giant (giant foxtail; [5]): 50

Structure (SMILES): Cc1nn(C(C)(C)C)nc1C(=O)Nc1cccc(C(=S)N(C)C)c1 [Compound 419]
- Sedge, Umbrella plant response rating [1]: 80
- Plant response rating (0 to 100 scale), Pigweed (pigweed; [6]): 100
- Pigweed plant response rating (pigweed; [7]): 80
- Pigweed plant response rating (pigweed; [8]): 60
- Plant response rating (0 to 100 scale), Surinam Grass (Surinam grass; [6]): 90
- Surinam Grass plant response rating (Surinam grass; [7]): 30
- Surinam Grass plant response rating (Surinam grass; [8]): 20
- Oat, Wild plant response rating (wild oat; [7]): 20
- Oat, Wild plant response rating (wild oat; [8]): 0
- Blackgrass plant response rating (blackgrass; [7]): 30
- Blackgrass plant response rating (blackgrass; [8]): 10
- Plant response rating (0 to 100 scale), Corn (corn; [6]): 70
- Corn plant response rating (corn; [7]): 30
- Corn plant response rating (corn; [8]): 20
- Plant response rating (0 to 100 scale), Morningglory (morningglory; [6]): 50
- Morningglory plant response rating (morningglory; [7]): 90
- Morningglory plant response rating (morningglory; [8]): 80
- Wheat plant response rating (wheat; [9]): 100
- Wheat plant response rating (wheat; [7]): 20
- Wheat plant response rating (wheat; [8]): 10
- Plant response rating (0 to 100 scale), Barnyardgrass (barnyardgrass; [6]): 100
- Barnyardgrass plant response rating (barnyardgrass; [10]): 20
- Barnyardgrass plant response rating (barnyardgrass; [7]): 50
- Rice plant response rating (rice): 80
- Plant response rating (0 to 100 scale), Velvetleaf (velvetleaf; [6]): 70
- Velvetleaf plant response rating (velvetleaf; [7]): 50
- Velvetleaf plant response rating (velvetleaf; [8]): 20
- Ducksalad plant response rating (ducksalad): 70
- Plant response rating (0 to 100 scale), Cocklebur (cocklebur; [6]): 30
- Cocklebur plant response rating (cocklebur; [7]): 40
- Cocklebur plant response rating (cocklebur; [8]): 20
- Plant response rating (0 to 100 scale), Crabgrass, Large (large crabgrass; [6]): 100
- Crabgrass, Large plant response rating (large crabgrass; [7]): 40
- Crabgrass, Large plant response rating (large crabgrass; [8]): 30
- Plant response rating (0 to 100 scale), Foxtail, Giant (giant foxtail; [6]): 90
- Foxtail, Giant plant response rating (giant foxtail; [7]): 30
- Foxtail, Giant plant response rating (giant foxtail; [8]): 30

Structure (SMILES): CCn1nc(C(C)(C)C)cc1C(=O)Nc1cc(C(=O)NCC2CC2)ccn1 [Compound 155]
- Sedge, Umbrella plant response rating ([1]; visual rating, 13 to 15 days): 90
- Plant response rating, Pigweed (pigweed; [2]): 100
- Pigweed plant response rating (pigweed; [4]): 60
- Pigweed plant response rating (pigweed; [11]): 100
- Plant response rating, Pigweed (pigweed; [5]): 100
- Plant response rating, Surinam Grass (Surinam grass; [2]): 50
- Surinam Grass plant response rating (Surinam grass; [4]): 20
- Surinam Grass plant response rating (Surinam grass; [11]): 30
- Plant response rating, Surinam Grass (Surinam grass; [5]): 10
- Oat, Wild plant response rating (wild oat; [4]): 40
- Oat, Wild plant response rating (wild oat; [11]): 50
- Blackgrass plant response rating (blackgrass; [4]): 40
- Blackgrass plant response rating (blackgrass; [11]): 50
- Plant response rating, Corn (corn; [2]): 30
- Corn plant response rating (corn; [4]): 10
- Corn plant response rating (corn; [11]): 20
- Plant response rating, Corn (corn; [5]): 0
- Plant response rating, Morningglory (morningglory; [2]): 40
- Morningglory plant response rating (morningglory; [4]): 30
- Morningglory plant response rating (morningglory; [11]): 60
- Plant response rating, Morningglory (morningglory; [5]): 20
- Wheat plant response rating (wheat; [11]): 20
- Plant response rating, Barnyardgrass (barnyardgrass; [2]): 90
- Barnyardgrass plant response rating (barnyardgrass; [4]): 10
- Barnyardgrass plant response rating (barnyardgrass; [11]): 20
- Plant response rating, Barnyardgrass (barnyardgrass; [5]): 60
- Rice plant response rating (rice; visual rating, 13 to 15 days): 20
- Plant response rating, Velvetleaf (velvetleaf; [2]): 70
- Velvetleaf plant response rating (velvetleaf; [4]): 20
- Velvetleaf plant response rating (velvetleaf; [11]): 70
- Plant response rating, Velvetleaf (velvetleaf; [5]): 20
- Ducksalad plant response rating (ducksalad; visual rating, 13 to 15 days): 100
- Plant response rating, Cocklebur (cocklebur; [2]): 30
- Cocklebur plant response rating (cocklebur; [4]): 60
- Cocklebur plant response rating (cocklebur; [11]): 80
- Plant response rating, Cocklebur (cocklebur; [5]): 0
- Plant response rating, Crabgrass, Large (large crabgrass; [2]): 100
- Crabgrass, Large plant response rating (large crabgrass; [4]): 20
- Crabgrass, Large plant response rating (large crabgrass; [11]): 40
- Plant response rating, Crabgrass, Large (large crabgrass; [5]): 60
- Plant response rating, Foxtail, Giant (giant foxtail; [2]): 90
- Foxtail, Giant plant response rating (giant foxtail; [4]): 20
- Foxtail, Giant plant response rating (giant foxtail; [11]): 30
- Plant response rating, Foxtail, Giant (giant foxtail; [5]): 20

Structure (SMILES): CCN(C(C)=O)C(=O)c1ccc(F)c(NC(=O)c2cc(C(C)(C)C)nn2CC)c1 [Compound 413]
- Sedge, Umbrella plant response rating [1]: 90
- Plant response rating (0 to 100 scale), Pigweed (pigweed; [6]): 20
- Pigweed plant response rating (pigweed; [7]): 70
- Pigweed plant response rating (pigweed; [8]): 50
- Plant response rating (0 to 100 scale), Surinam Grass (Surinam grass; [6]): 10
- Surinam Grass plant response rating (Surinam grass; [7]): 20
- Surinam Grass plant response rating (Surinam grass; [8]): 20
- Oat, Wild plant response rating (wild oat; [7]): 10
- Oat, Wild plant response rating (wild oat; [8]): 0
- Blackgrass plant response rating (blackgrass; [7]): 20
- Blackgrass plant response rating (blackgrass; [8]): 10
- Plant response rating (0 to 100 scale), Corn (corn; [6]): 0
- Corn plant response rating (corn; [7]): 20
- Corn plant response rating (corn; [8]): 10
- Plant response rating (0 to 100 scale), Morningglory (morningglory; [6]): 0
- Morningglory plant response rating (morningglory; [7]): 70
- Morningglory plant response rating (morningglory; [8]): 30
- Wheat plant response rating (wheat; [9]): 80
- Wheat plant response rating (wheat; [7]): 10
- Wheat plant response rating (wheat; [8]): 0
- Plant response rating (0 to 100 scale), Barnyardgrass (barnyardgrass; [6]): 40
- Barnyardgrass plant response rating (barnyardgrass; [10]): 10
- Barnyardgrass plant response rating (barnyardgrass; [7]): 20
- Rice plant response rating (rice): 60
- Plant response rating (0 to 100 scale), Velvetleaf (velvetleaf; [6]): 0
- Velvetleaf plant response rating (velvetleaf; [7]): 50
- Velvetleaf plant response rating (velvetleaf; [8]): 30
- Ducksalad plant response rating (ducksalad): 80
- Cocklebur plant response rating (cocklebur; [7]): 90
- Cocklebur plant response rating (cocklebur; [8]): 30
- Plant response rating (0 to 100 scale), Crabgrass, Large (large crabgrass; [6]): 20
- Crabgrass, Large plant response rating (large crabgrass; [7]): 20
- Crabgrass, Large plant response rating (large crabgrass; [8]): 10
- Plant response rating (0 to 100 scale), Foxtail, Giant (giant foxtail; [6]): 10
- Foxtail, Giant plant response rating (giant foxtail; [7]): 20
- Foxtail, Giant plant response rating (giant foxtail; [8]): 20

— US20060069132A1, “Azolecarboxamide herbicides” (priority 2004, published 2006)
